pKi: −log10 of the molar value.
Columns and labels:
spASADH [1] = biological target: T1, spASADH (Streptococcus pneumoniae, UniProt Q8DQ00); experiment: Kinetic inhibition of spASADH; format: biochemical
T1 sequence (Q8DQ00 1-358): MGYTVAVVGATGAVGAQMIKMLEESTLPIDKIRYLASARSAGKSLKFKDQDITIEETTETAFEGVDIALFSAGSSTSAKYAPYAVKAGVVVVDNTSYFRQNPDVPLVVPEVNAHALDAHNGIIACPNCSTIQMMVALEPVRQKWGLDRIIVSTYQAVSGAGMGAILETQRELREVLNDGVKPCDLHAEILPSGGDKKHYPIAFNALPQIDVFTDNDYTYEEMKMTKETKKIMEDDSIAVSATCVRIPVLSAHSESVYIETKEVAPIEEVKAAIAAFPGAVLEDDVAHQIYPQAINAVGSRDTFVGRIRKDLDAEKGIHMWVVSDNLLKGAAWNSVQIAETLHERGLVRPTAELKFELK

spASADH [2] = biological target: T1, spASADH; settings: in words; ref [14]; cited from earlier work
ASADH = ASADH (Vibrio cholerae serotype O1, UniProt Q9KQG2); experiment: Kinetic inhibition of ASADH by substrate analogue; format: biochemical; settings: inhibitor of ASADH, enzyme form not stated
Chain of ASADH (Q9KQG2 whole entry): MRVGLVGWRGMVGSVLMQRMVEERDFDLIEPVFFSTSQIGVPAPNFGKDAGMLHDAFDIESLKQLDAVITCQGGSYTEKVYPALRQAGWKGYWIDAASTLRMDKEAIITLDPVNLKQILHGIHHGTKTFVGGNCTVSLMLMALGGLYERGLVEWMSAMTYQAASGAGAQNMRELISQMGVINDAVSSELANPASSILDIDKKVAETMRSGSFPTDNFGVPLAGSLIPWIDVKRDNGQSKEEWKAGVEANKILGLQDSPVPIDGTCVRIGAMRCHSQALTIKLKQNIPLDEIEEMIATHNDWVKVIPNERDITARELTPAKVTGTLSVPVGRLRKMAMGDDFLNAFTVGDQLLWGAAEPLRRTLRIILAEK

## Nc1cc(C(=O)O)ccc1C(=O)O [2-aminoterephthalate]
spASADH [1]
  pKi: 3.11
spASADH [1]; ratio of Ki values
  enhanced affinity relative to terephthalic acid: greater than 6 fold

## O=C(O)C1CCC(C(=O)O)CC1 (stereo not drawn) [cyclohexane-1,4-dicarboxylate]
spASADH [1]; ratio of Ki values
  higher affinity than 2-aminoterephthalate: 2 fold

## NC(CCCC(=O)O)C(=O)O (racemic) [DL-2-aminoadipate]
spASADH [2]
  inhibitory activity: little inhibitory activity

## O=C(O)c1ccc(C(=O)O)cc1 [Terephthalic acid, benzene-1,4-dicarboxylic acid]
spASADH [1]
  pKi: ~2.30

## C=CC[S@+]([O-])C[C@H](N)C(=O)O [S-allyl-L-cysteine sulfoxide]
ASADH
  pKi: 5.10

Source: paper PMC3383612 (Chemical biology & drug design, 2011)
